Test results taken from US20140018545A1, “Inhibitors of Dipeptidylpeptidase IV” (Trustees of Tufts College, priority 2004, published 2014).
Read-outs that look alike come from different tables or passages of the source.

Tests used:
[1] = molecular target: DP8 (Homo sapiens, UniProt Q6V1X1); assay: Dipeptidyl peptidase 8 inhibition assay (Example 1 assay with DP8 substituted for DPIV); assay type: biochemical; conditions: at the pH values tested
Description: L-Ala-[5-(HOCH2)-2-boroPro] was also tested to determine its inhibition of dipeptidyl peptidases 8 and 9 (DP8 and DP9). The assay is the same as that described in Example 1, except that DP8 or DP9 was substituted for DPIV.

[2] = molecular target: DP9 (Homo sapiens, UniProt Q86TI2); assay: Dipeptidyl peptidase 9 inhibition assay (Example 1 assay with DP9 substituted for DPIV); assay type: biochemical; conditions: for DP9/DPIV ratio: ratio of IC50 values, selectivity for DPIV
Description: In this example, the assay was conducted for DPIV and DP9. The ratio of IC50 values for each tested compound was calculated in order to determine the selectivity for the DPIV isoform. IC50 values were measured at the same pH throughout the assay.

[3] = molecular target: T1, DPIV (Homo sapiens, UniProt P27487); assay: DPIV inhibition assay (L-alanyl-L-proline-para-nitroanilide substrate, absorbance at 410 nm)
Description: (§1) The inhibitor solution was prepared by dissolving 3-5 mg of inhibitor in pH 2 solution (0.01 N HCl), such that the concentration of the solution was equal to 1 mg/10 μL. A 10 μL sample of this solution was then added to 990 μL of pH 8 buffer (0.1 M HEPES, 0.14 M NaCl), and the solution was allowed to stand at room temperature overnight.
(§2) The substrate solution was prepared by dissolving 2.0 mg of L-alanyl-L-proline-para-nitroanilide into 20 mL of pH 8 buffer.
(§3) 250 μL of enzyme solution was added to well #B1 to #H1, #A2 to #H2, and #A3 to #H3 of a 96 well plate, while well #A1 received 250 μL of pH 8 buffer instead of enzyme solution. 90 μL of pH 8 buffer was then added to column 5 (from well #A5 to #H5).
(§4) A 1:10 dilution was then performed by adding inhibitor solution to #A5 and the solution was mixed well before transferring 10 μL of this solution from #A5 to #B5. The solution in #B5 was then mixed well before transferring 10 μL of this solution from #B5 to #C5. The solution in #C5 was then mixed well before transferring 10 μL of this solution from #C5 to #D5. The solution in #D5 was then mixed well before transferring 10 μL of this solution from #D5 to #E5. The solution in #E5 was then mixed well before transferring 10 μL of this solution from #E5 to #F5. The solution in #F5 was then mixed well before transferring 10 μL of this solution from #F5 to #G5. The solution in #G5 was then mixed well before transferring 10 μL of this solution from #G5 to #H5.
(§5) A 30 μL aliquot was then transferred from #H5 to #H3 for row H, and the contents were mixed well. The analogous procedure was repeated for rows G, F, E, D, C, B, and A sequentially. The plate was then shaken on a plate shaker for 5 minutes before allowing the plate to incubate at room temperature for an additional 5 minutes.
(§6) Once the plate had been allowed to incubate, 30 μL of substrate was added to each well except well #A1. The plate was then placed on a plate shaker for 5 minutes before allowing the plate to incubate at room temperature for 25 minutes. The absorbance was then immediately read at a wavelength of 410 nm.

[4] = molecular target: T1, DPIV; conditions: pH 8
Description: as §1, §2, §3, §4, §5, §6

[5] = Example 6, same pH throughout the assay (pH not stated), read-out: DP9 IC50
[6] = read-out: DPIV IC50, Example 6, same pH throughout the assay (pH not stated)

T1 sequence (P27487 whole entry): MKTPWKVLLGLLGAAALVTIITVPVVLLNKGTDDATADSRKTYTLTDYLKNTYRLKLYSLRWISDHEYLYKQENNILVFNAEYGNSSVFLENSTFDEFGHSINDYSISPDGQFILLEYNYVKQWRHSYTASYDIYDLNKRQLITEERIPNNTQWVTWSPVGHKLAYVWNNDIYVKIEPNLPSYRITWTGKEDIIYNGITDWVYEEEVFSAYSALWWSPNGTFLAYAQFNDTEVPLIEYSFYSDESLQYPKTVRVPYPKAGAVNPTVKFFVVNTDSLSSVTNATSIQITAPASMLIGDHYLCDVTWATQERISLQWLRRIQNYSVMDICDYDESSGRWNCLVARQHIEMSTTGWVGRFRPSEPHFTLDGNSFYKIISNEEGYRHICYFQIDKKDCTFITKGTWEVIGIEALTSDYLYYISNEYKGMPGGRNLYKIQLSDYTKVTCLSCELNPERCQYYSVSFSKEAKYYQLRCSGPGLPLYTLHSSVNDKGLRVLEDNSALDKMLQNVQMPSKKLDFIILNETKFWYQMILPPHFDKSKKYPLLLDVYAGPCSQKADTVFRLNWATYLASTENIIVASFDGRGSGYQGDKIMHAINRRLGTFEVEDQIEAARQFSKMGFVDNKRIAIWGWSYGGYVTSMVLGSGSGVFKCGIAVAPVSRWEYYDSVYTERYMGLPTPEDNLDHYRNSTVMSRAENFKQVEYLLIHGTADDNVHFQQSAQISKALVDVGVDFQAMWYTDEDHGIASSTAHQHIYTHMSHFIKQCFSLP
Sequence of DP9 (Q86TI2 whole entry, species assumed, canonical isoform): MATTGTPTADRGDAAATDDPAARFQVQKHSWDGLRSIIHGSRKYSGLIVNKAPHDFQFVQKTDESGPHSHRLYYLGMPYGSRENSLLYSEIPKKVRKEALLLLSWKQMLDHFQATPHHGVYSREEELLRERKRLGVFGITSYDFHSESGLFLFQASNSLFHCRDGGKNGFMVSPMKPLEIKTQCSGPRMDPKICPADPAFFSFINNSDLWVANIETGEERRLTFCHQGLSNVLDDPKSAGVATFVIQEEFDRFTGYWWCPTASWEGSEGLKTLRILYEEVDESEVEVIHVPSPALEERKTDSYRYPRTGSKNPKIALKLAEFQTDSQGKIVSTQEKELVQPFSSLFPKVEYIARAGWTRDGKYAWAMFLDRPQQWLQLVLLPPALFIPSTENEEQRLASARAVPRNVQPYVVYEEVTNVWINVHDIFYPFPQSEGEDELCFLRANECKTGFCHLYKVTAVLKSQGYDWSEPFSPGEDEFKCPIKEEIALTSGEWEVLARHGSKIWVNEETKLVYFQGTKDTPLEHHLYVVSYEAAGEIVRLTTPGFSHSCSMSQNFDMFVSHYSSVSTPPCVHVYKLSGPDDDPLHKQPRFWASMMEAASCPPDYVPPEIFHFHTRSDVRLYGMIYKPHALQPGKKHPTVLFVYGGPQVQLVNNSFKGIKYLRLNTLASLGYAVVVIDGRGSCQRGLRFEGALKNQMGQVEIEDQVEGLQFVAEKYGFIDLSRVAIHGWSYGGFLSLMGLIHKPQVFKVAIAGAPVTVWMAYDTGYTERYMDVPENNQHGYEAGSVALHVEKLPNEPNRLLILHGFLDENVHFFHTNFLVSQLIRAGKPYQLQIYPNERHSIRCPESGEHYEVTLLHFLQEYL
Sequence of DP8 (Q6V1X1 whole entry, species assumed): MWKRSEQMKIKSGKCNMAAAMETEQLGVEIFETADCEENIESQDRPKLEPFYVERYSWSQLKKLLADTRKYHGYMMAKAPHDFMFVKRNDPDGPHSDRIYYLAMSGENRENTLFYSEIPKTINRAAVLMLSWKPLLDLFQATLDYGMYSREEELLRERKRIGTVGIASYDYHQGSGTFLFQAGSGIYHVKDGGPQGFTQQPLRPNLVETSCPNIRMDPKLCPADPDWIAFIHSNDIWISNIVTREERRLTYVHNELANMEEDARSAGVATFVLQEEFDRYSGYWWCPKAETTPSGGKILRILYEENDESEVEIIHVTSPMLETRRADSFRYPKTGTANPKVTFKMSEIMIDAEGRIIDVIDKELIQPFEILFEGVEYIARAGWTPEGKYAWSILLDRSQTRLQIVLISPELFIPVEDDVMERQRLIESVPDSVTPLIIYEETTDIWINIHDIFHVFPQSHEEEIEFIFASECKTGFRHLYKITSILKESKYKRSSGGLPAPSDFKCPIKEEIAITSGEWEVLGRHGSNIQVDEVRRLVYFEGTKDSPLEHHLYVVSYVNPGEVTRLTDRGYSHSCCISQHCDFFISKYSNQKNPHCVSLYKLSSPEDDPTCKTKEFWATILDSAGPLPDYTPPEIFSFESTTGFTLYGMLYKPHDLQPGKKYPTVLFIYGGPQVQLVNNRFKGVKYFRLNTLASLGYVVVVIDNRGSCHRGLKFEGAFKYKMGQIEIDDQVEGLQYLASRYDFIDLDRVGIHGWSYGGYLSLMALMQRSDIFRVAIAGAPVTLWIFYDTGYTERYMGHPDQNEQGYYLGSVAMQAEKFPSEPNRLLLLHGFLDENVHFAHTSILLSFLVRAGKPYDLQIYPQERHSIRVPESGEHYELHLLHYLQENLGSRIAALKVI

Compound | IC50 [2, 5] | DP9/DPIV ratio [2] | IC50 [3, 6] | other results
C[C@H](N)C(=O)N1C(CO)CCC1B(O)O (stereo partly drawn) [L-Ala-[5-(HOCH2)-2-boroPro]] | 28000 µM | 700,000 | 40 nM | IC50 [1]: > 70 µM; IC50 ([2]; DP9, at the pH values tested, read-out: IC50): > 70 µM; selectivity for DPIV over DP9 ([2]; in words, based on the IC50 ratios of Example 6): highly selective for DPIV; IC50 ([3]; read-out: IC50 at pH 2, DPIV, pH 2): 21.9 nM; IC50 ([3]; read-out: IC50 at pH 8, DPIV, pH 8): 12900 nM
CC1CC[C@@H](B(O)O)N1C(=O)[C@H](C)N (stereo partly drawn) [L-Ala-5-Me-boroPro] |  |  |  | IC50 ([3]; IC50 at pH 2, DPIV, pH 2): 11 nM; IC50 ([3]; IC50 at pH 8, DPIV, pH 8): 15400 nM
Arg-boroEtGly | 0.007 µM | 0.70 | 10 nM | 
C[C@H](NC(=O)[C@@H](N)CCCN=C(N)N)B(O)O [Arg-boroAla] | 0.023 µM | 2.88 | 8 nM | 
CC[C@H](NC(=O)[C@@H](N)CCC(=O)O)B(O)O [Glu-boroEtg] |  |  |  | IC50 ([3]; IC50, DPIV, pH 8): 49 nM
N[C@@H](CCC(=O)O)C(=O)N1CCC[C@H]1B(O)O [Glu-boroPro] |  |  | 3 nM | IC50 [4]: 2.4 µM
C[C@H](NC(=O)[C@@H](N)CC(=O)O)B(O)O [Asp-boroAla] | 5000 µM | 6.28 | 797000 nM | 
N=C(N)NCCC[C@H](N)C(=O)N1CCC[C@H]1B(O)O [Arg-boroPro] | 0.824 µM | 412 |  | IC50 ([3]; DPIV IC50 (nM), Example 6, same pH throughout the assay (pH not stated)): 2 nM
